From the NIST ThermoML archive (doi:10.1016/j.fluid.2017.06.024)

Conditions: Liquid; for speed of sound: Frequency=3 MHz, Pulse-echo method; for mass density: Vibrating tube method

CC(C)OC(C)C [diisopropyl ether]
Conditions | mass density [kg/m3] | speed of sound [m/s]
293.15 K, 100 kPa | 723.5 | 1019.7
293.15 K, 10000 kPa | 734.6 | –
293.15 K, 20000 kPa | 744.5 | 1161.2
293.15 K, 30000 kPa | 753.3 | –
293.15 K, 40000 kPa | 761.3 | 1274.5
293.15 K, 50000 kPa | 768.6 | –
293.15 K, 60000 kPa | 775.4 | 1369.3
293.15 K, 70000 kPa | 781.7 | –
293.15 K, 80000 kPa | 787.6 | 1454.2
293.15 K, 90000 kPa | 793.2 | –
293.15 K, 100000 kPa | 798.5 | 1528.7
293.15 K, 110000 kPa | 803.5 | –
293.15 K, 120000 kPa | 808.4 | –
293.15 K, 130000 kPa | 813 | –
293.15 K, 140000 kPa | 817.4 | –
303.15 K, 100 kPa | 712.9 | 974.32
303.15 K, 10000 kPa | 725.2 | –
303.15 K, 20000 kPa | 735.9 | 1122.6
303.15 K, 30000 kPa | 745.3 | –
303.15 K, 40000 kPa | 753.8 | 1240.4
303.15 K, 50000 kPa | 761.5 | –
303.15 K, 60000 kPa | 768.5 | 1337.6
303.15 K, 70000 kPa | 775.1 | –
303.15 K, 80000 kPa | 781.2 | 1423.4
303.15 K, 90000 kPa | 787 | –
303.15 K, 100000 kPa | 792.4 | 1501.9
303.15 K, 110000 kPa | 797.6 | –
303.15 K, 120000 kPa | 802.5 | –
303.15 K, 130000 kPa | 807.3 | –
303.15 K, 140000 kPa | 811.8 | –
313.15 K, 100 kPa | 702.2 | 930.24
313.15 K, 10000 kPa | 715.5 | –
313.15 K, 20000 kPa | 726.9 | 1086.8
313.15 K, 30000 kPa | 736.9 | –
313.15 K, 40000 kPa | 745.7 | 1207.9
313.15 K, 50000 kPa | 753.8 | –
313.15 K, 60000 kPa | 761.1 | 1308.1
313.15 K, 70000 kPa | 768.1 | –
313.15 K, 80000 kPa | 774.3 | 1396.7
313.15 K, 90000 kPa | 780.3 | –
313.15 K, 100000 kPa | 786 | 1475
313.15 K, 110000 kPa | 791.5 | –
313.15 K, 120000 kPa | 796.4 | –
313.15 K, 130000 kPa | 801.4 | –
313.15 K, 140000 kPa | 805.9 | –
323.15 K, 100 kPa | 691.5 | 887.83
323.15 K, 10000 kPa | 706 | –
323.15 K, 20000 kPa | 718 | 1051.9
323.15 K, 30000 kPa | 728.5 | –
323.15 K, 40000 kPa | 737.8 | 1177.1
323.15 K, 50000 kPa | 746.2 | –
323.15 K, 60000 kPa | 753.9 | 1279
323.15 K, 70000 kPa | 761 | –
323.15 K, 80000 kPa | 767.5 | 1368.7
323.15 K, 90000 kPa | 773.7 | –
323.15 K, 100000 kPa | 779.5 | 1448.7
323.15 K, 110000 kPa | 785 | –
323.15 K, 120000 kPa | 790.3 | –
323.15 K, 130000 kPa | 795.2 | –
323.15 K, 140000 kPa | 800 | –
333.15 K, 100 kPa | 680.6 | 847.29
333.15 K, 10000 kPa | 696.3 | –
333.15 K, 20000 kPa | 709.3 | 1017.8
333.15 K, 30000 kPa | 720.5 | –
333.15 K, 40000 kPa | 730.3 | 1146.8
333.15 K, 50000 kPa | 739.1 | –
333.15 K, 60000 kPa | 747.1 | 1252.4
333.15 K, 70000 kPa | 754.5 | –
333.15 K, 80000 kPa | 761.4 | 1343.2
333.15 K, 90000 kPa | 767.8 | –
333.15 K, 100000 kPa | 773.8 | 1423.5
333.15 K, 110000 kPa | 779.4 | –
333.15 K, 120000 kPa | 784.8 | –
333.15 K, 130000 kPa | 789.9 | –
333.15 K, 140000 kPa | 794.7 | –
343.15 K, 10000 kPa | 686 | –
343.15 K, 20000 kPa | 700 | 984.53
343.15 K, 30000 kPa | 711.8 | –
343.15 K, 40000 kPa | 722.2 | 1117.8
343.15 K, 50000 kPa | 731.4 | –
343.15 K, 60000 kPa | 739.7 | 1226.4
343.15 K, 70000 kPa | 747.3 | –
343.15 K, 80000 kPa | 754.4 | 1318.7
343.15 K, 90000 kPa | 761 | –
343.15 K, 100000 kPa | 767.2 | 1400.8
343.15 K, 110000 kPa | 773.2 | –
343.15 K, 120000 kPa | 778.6 | –
343.15 K, 130000 kPa | 784 | –
343.15 K, 140000 kPa | 788.9 | –
353.15 K, 10000 kPa | 676.2 | –
353.15 K, 20000 kPa | 691.2 | 953.14
353.15 K, 30000 kPa | 703.7 | –
353.15 K, 40000 kPa | 714.6 | 1090.7
353.15 K, 50000 kPa | 724.2 | –
353.15 K, 60000 kPa | 733 | 1200.4
353.15 K, 70000 kPa | 740.9 | –
353.15 K, 80000 kPa | 748.2 | 1294.6
353.15 K, 90000 kPa | 755.1 | –
353.15 K, 100000 kPa | 761.4 | 1378.4
353.15 K, 110000 kPa | 767.3 | –
353.15 K, 120000 kPa | 773 | –
353.15 K, 130000 kPa | 778.4 | –
353.15 K, 140000 kPa | 783.5 | –
363.15 K, 10000 kPa | 666.1 | –
363.15 K, 20000 kPa | 682.3 | –
363.15 K, 30000 kPa | 695.6 | –
363.15 K, 40000 kPa | 707 | –
363.15 K, 50000 kPa | 717.1 | –
363.15 K, 60000 kPa | 726.1 | –
363.15 K, 70000 kPa | 734.4 | –
363.15 K, 80000 kPa | 742 | –
363.15 K, 90000 kPa | 749 | –
363.15 K, 100000 kPa | 755.5 | –
363.15 K, 110000 kPa | 761.7 | –
363.15 K, 120000 kPa | 767.5 | –
363.15 K, 130000 kPa | 773 | –
363.15 K, 140000 kPa | 778.3 | –
373.15 K, 10000 kPa | 655.9 | –
373.15 K, 20000 kPa | 673.3 | –
373.15 K, 30000 kPa | 687.4 | –
373.15 K, 40000 kPa | 699.4 | –
373.15 K, 50000 kPa | 709.9 | –
373.15 K, 60000 kPa | 719.3 | –
373.15 K, 70000 kPa | 728 | –
373.15 K, 80000 kPa | 735.7 | –
373.15 K, 90000 kPa | 743.1 | –
373.15 K, 100000 kPa | 749.8 | –
373.15 K, 110000 kPa | 756.2 | –
373.15 K, 120000 kPa | 762.2 | –
373.15 K, 130000 kPa | 767.8 | –
373.15 K, 140000 kPa | 773.1 | –
383.15 K, 10000 kPa | 645.3 | –
383.15 K, 20000 kPa | 664 | –
383.15 K, 30000 kPa | 679 | –
383.15 K, 40000 kPa | 691.8 | –
383.15 K, 50000 kPa | 702.8 | –
383.15 K, 60000 kPa | 712.5 | –
383.15 K, 70000 kPa | 721.4 | –
383.15 K, 80000 kPa | 729.5 | –
383.15 K, 90000 kPa | 737 | –
383.15 K, 100000 kPa | 743.9 | –
383.15 K, 110000 kPa | 750.4 | –
383.15 K, 120000 kPa | 756.6 | –
383.15 K, 130000 kPa | 762.4 | –
383.15 K, 140000 kPa | 767.9 | –
393.15 K, 10000 kPa | 634.8 | –
393.15 K, 20000 kPa | 654.9 | –
393.15 K, 30000 kPa | 670.7 | –
393.15 K, 40000 kPa | 684 | –
393.15 K, 50000 kPa | 695.4 | –
393.15 K, 60000 kPa | 705.6 | –
393.15 K, 70000 kPa | 714.8 | –
393.15 K, 80000 kPa | 722.9 | –
393.15 K, 90000 kPa | 730.8 | –
393.15 K, 100000 kPa | 738 | –
393.15 K, 110000 kPa | 744.6 | –
393.15 K, 120000 kPa | 750.9 | –
393.15 K, 130000 kPa | 756.8 | –
393.15 K, 140000 kPa | 762.3 | –
